Broadly, the IC50 is the concentration at which inhibition is half-maximal.

The assay deals with T1, cytochrome bc1 complex (complex III) of P. capsici.
T1 construct: gene cob; native complex III in freeze-thawed hyphal mitochondria isolated by differential centrifugation; not purified; with Cytochrome c1, heme protein, mitochondrial; Cytochrome b-c1 complex subunit Rieske, mitochondrial
The assay can be described thus: complex III activity assay kit (Genmed GMS50009), hyphal mitochondria. The class given is biochemical, Phytophthora capsici. The settings on record: freeze-thawed mitochondria; Qi site proposed, not shown.

Turning to `Cc1cc(=O)c2ccccc2n1OC(=O)CCCCCCCCCC[P+](c1ccccc1)(c1ccccc1)c1ccccc1` [mitoQNO11], the IC50 was 3.33 µM.
